Source: US20200010482A1, “INHIBITORS OF BETA SECRETASE” (Janssen Pharmaceutica NV, priority 2017, published 2020)

What was measured:
[1] = biological target: T1, BACE1 (Homo sapiens, UniProt P56817); test: BACE1 biochemical FRET based assay; conditions: recombinant BACE1 0.04 μg/ml, 20 μM substrate, 450 min, pH 5.0; for IC50: read-out: BIOCHEMICAL FRET BASED ASSAY pIC50 (converted)
T1 construct: recombinant BACE1 protein in a final concentration of 0.04 μg/ml
Description: (§1) This assay is a Fluorescence Resonance Energy Transfer Assay (FRET) based assay. The substrate for this assay is an APP derived 13 amino acids peptide that contains the ‘Swedish’ Lys-Met/Asn-Leu mutation of the amyloid precursor protein (APP) beta-secretase cleavage site. This substrate also contains two fluorophores: (7-methoxycoumarin-4-yl) acetic acid (Mca) is a fluorescent donor with excitation wavelength at 320 nm and emission at 405 nm and 2,4-Dinitrophenyl (Dnp) is a proprietary quencher acceptor. […] Upon cleavage by BACE1, the fluorophore Mca is separated from the quenching group Dnp, restoring the full fluorescence yield of the donor. The increase in fluorescence is linearly related to the rate of proteolysis.
Briefly in a 384-well format recombinant BACE1 protein in a final concentration of 0.04 μg/ml is incubated for 450 minutes at room temperature with 20 μM substrate in incubation buffer (50 mM Citrate buffer pH 5.0, 0.05% PEG) in the presence of compound or DMSO. Next the amount of proteolysis is directly measured by fluorescence measurement (excitation at 320 nm and emission at 405 nm) at different incubation times (0, 30, 60, 90, 120 and 450 min). For every experiment a time curve (every 30 min between 0 min and 120 min) is used to determine the time where we find the lowest basal signal of the high control. The signal at this time (Tx) is used to subtract from the signal at 450 min. Results are expressed in RFU, as difference between T450 and Tx.
(§2) A best-fit curve is fitted by a minimum sum of squares method to the plot of % Controlmin versus compound concentration. From this an IC50 value (inhibitory concentration causing 50% inhibition of activity) can be obtained. • LC=Median of the low control values=Low control: Reaction without enzyme • HC=Median of the High control values=High Control: Reaction with enzyme
(§3) % Effect=100−[(sample−LC)/(HC−LC)*100]
(§4) % Control=(sample/HC)*100
(§5) % Controlmin=(sample−LC)/(HC−LC)*100

[2] = biological target: T2, BACE2 (Homo sapiens, UniProt Q9Y5Z0); test: BACE2 biochemical FRET based assay; conditions: recombinant BACE2 0.4 μg/ml, 10 μM substrate, 450 min, pH 5.0; for IC50: read-out: BIOCHEMICAL FRET BASED ASSAY pIC50 (converted)
T2 construct: recombinant BACE2 protein in a final concentration of 0.4 μg/ml
T2 sequence (Q9Y5Z0 63-518): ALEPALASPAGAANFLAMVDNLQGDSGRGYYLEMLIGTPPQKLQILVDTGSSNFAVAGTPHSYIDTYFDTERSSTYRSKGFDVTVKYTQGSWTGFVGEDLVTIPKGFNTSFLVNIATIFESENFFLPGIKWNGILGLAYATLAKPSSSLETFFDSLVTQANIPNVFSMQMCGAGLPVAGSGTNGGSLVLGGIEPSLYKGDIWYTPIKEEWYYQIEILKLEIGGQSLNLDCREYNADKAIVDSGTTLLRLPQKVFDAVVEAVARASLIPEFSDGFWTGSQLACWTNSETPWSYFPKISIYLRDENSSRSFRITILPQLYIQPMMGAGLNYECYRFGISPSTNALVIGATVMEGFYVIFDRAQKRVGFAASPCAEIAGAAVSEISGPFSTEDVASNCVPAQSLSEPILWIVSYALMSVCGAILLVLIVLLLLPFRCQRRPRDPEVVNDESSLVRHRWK
Description: as §1, with “assay” for “assay is an APP derived 13 amino acids peptide that”, “the beta-secretase,” for “BACE1,”
Briefly in a 384-well format recombinant BACE2 protein in a final concentration of 0.4 μg/ml is incubated for 450 minutes at room temperature with 10 μM substrate in incubation buffer (50 mM Citrate buffer pH 5.0, 0.05% PEG, no DMSO) in the absence or presence of compound. Next the amount of proteolysis is directly measured by fluorescence measurement at T=0 and T=450 (excitation at 320 nm and emission at 405 nm). Results are expressed in RFU (Relative Fluorescence Units), as difference between T450 and TO.
as §2, §3, §4, §5

[3] = tested on: Abeta total produced and secreted by SKNBE2 cells expressing hAPP695; test: Cellular αLisa assay in SKNBE2 cells, Abeta total; assay type: cell-based, human; conditions: SKNBE2 cells expressing hAPP695, 18 hours incubation; for IC50: Homo sapiens, SKNBE2, 18 h, read-out: CELLULAR αLISA ASSAY IN SKNBE2 CELLS ABETA TOTAL pIC50 (converted)
Experimental: (§6) In two αLisa assays the levels of Abeta total and Abeta 1-42 produced and secreted into the medium of human neuroblastoma SKNBE2 cells are quantified. The assay is based on the human neuroblastoma SKNBE2 expressing the wild type Amyloid Precursor Protein (hAPP695). The compounds are diluted and added to these cells, incubated for 18 hours and then measurements of Abeta 1-42 and Abeta total are taken. Abeta total and Abeta 1-42 are measured by sandwich αLisa. αLisa is a sandwich assay using biotinylated antibody AbN/25 attached to streptavidin coated beads and antibody Ab4G8 or cAb42/26 conjugated acceptor beads for the detection of Abeta total and Abeta 1-42 respectively. In the presence of Abeta total or Abeta 1-42, the beads come into close proximity. The excitation of the donor beads provokes the release of singlet oxygen molecules that trigger a cascade of energy transfer in the acceptor beads, resulting in light emission. Light emission is measured after 1 hour incubation (excitation at […] and emission at 615 nm).
as §2, with “cells preincubated” for “Reaction”, “compound, without biotinylated Ab in the αLisa” for “enzyme”, “cells preincubated without compound” for “Reaction with enzyme”
as §3, §4, §5

[4] = tested on: Abeta 1-42 produced and secreted by SKNBE2 cells expressing hAPP695; test: Cellular αLisa assay in SKNBE2 cells, Abeta 1-42; assay type: cell-based, human; conditions: SKNBE2 cells expressing hAPP695, 18 hours incubation; for IC50: Homo sapiens, SKNBE2, 18 h, read-out: CELLULAR αLISA ASSAY IN SKNBE2 CELLS ABETA 42 PIC50 (converted)
Experimental: as §6
as §2, with “cells preincubated” for “Reaction”, “compound, without biotinylated Ab in the αLisa” for “enzyme”, “cells preincubated without compound” for “Reaction with enzyme”
as §3, §4, §5

T1 sequence (P56817 46-501): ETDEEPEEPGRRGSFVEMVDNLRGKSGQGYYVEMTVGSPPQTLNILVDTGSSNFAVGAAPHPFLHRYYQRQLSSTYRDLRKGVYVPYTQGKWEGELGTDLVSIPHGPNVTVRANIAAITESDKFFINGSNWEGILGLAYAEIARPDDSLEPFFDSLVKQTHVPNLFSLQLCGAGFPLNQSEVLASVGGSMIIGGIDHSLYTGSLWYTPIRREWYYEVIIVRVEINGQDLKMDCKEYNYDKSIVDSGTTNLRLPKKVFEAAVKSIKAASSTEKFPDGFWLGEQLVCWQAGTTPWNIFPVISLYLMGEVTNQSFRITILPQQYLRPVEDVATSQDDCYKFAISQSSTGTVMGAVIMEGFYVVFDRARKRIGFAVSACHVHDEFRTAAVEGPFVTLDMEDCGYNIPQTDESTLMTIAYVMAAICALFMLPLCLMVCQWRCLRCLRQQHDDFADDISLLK

IC50 [1]	IC50 [2]	IC50 [3]	IC50 [4]	BIOCHEMICAL FRET BASED ASSAY pIC50 [1]	BIOCHEMICAL FRET BASED ASSAY pIC50 [2]	CELLULAR αLISA ASSAY IN SKNBE2 CELLS ABETA TOTAL pIC50 [3]	Structure (SMILES)	CELLULAR αLISA ASSAY IN SKNBE2 CELLS ABETA 42 PIC50 [4]
135 nM	97.7 nM	302 nM	355 nM				CCOc1ncc(C2CC2)c2c1CC1(c3ccc(F)cc3F)N=C(N)SCC1C2 (racemic) [Compound 21]	
6030 nM	6030 nM	1510 nM	1410 nM				Cn1ccc2c(c1=O)C[C@]1(c3ccccc3F)N=C(N)SC[C@@H]1C2 (racemic) [Compound 34]	
138 nM	45.7 nM	15.8 nM	16.6 nM				COc1nccc2c1C[C@]1(c3cc(O)ccc3F)N=C(N)SC[C@@H]1C2 [Compound 36]	
75.9 nM	155 nM	29.5 nM	26.3 nM				COc1ncc(C#N)c2c1CC1(c3ccc(F)cc3F)N=C(N)SCC1C2 (racemic) [Compound 23]	
				8.3	5.78	8.71	COc1ncc(-c2cnccc2C)c2c1C[C@]1(c3cc(-c4cncnc4)ccc3F)N=C(N)SC[C@@H]1C2 (mixture of isomers) [Compound 39]	8.78
> 10000 nM	> 10000 nM	6920 nM	> 8910 nM				CCOc1nccc2c1CC1(c3ccc(F)cc3F)N=C(N)SCC1C2 (single isomer, unassigned) [Compound 194]	
